# From publication PMC8632988, “Inhibition of SYK and cSrc kinases can protect bone and cartilage in preclinical models of osteoarthritis and rheumatoid arthritis” (Scientific Reports, 2021)
# Experiments:
# Experiment in all cases: Kinase selectivity profile assay
# Assay type in all cases: biochemical
# [1] = molecular target: T1, TLK1 (Homo sapiens, UniProt Q9UKI8); settings: 500 nM; relative to DMSO; read-out: Residual enzymatic activity
# T1 construct: purchased Reaction Biology Corporation
# In short: (§1)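 Radiometric kinase assay run by a standard protocol. Unbound phosphate was removed by washing filters in phosphoric acid, and product radioactivity gave percent remaining kinase activity versus DMSO vehicle reactions. Run in duplicate.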
# [2] = molecular target: T2, NEK7 (Homo sapiens, UniProt Q8TDX7); settings: 500 nM; relative to DMSO; read-out: Residual enzymatic activity
# T2 construct: purchased Reaction Biology Corporation
# In short: as §1
# [3] = molecular target: T3, EPHA4 (Homo sapiens, UniProt P54764); settings: 500 nM; relative to DMSO; read-out: Residual enzymatic activity
# T3 construct: purchased Reaction Biology Corporation
# T3 sequence (P54764 20-986): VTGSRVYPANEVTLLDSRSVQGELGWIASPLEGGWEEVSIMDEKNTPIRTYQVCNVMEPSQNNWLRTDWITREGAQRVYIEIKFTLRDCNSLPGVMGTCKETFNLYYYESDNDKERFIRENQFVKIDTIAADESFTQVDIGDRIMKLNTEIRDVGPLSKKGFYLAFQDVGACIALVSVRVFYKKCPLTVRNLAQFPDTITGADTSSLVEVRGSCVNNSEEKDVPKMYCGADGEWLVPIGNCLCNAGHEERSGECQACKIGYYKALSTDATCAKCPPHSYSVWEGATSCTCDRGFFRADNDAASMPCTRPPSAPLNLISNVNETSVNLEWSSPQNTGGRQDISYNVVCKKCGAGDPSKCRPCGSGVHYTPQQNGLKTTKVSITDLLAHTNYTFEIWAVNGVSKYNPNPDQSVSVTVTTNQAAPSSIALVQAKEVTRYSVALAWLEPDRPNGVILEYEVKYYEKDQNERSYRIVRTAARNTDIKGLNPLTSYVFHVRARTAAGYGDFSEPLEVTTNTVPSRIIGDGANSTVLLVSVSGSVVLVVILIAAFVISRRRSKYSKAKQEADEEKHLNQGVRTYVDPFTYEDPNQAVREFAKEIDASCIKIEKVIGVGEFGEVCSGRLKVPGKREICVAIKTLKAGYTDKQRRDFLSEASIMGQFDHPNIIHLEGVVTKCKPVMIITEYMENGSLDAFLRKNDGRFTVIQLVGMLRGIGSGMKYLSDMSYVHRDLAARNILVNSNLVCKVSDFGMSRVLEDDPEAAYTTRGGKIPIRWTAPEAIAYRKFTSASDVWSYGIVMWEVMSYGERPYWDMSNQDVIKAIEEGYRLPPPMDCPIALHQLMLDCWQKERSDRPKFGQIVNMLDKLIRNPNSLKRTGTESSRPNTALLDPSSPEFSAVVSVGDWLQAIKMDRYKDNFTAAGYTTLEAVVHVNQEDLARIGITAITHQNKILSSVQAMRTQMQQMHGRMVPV
# In short: as §1
# [4] = molecular target: T4, ASK1/MAP3K5 (Homo sapiens, UniProt Q99683); settings: 500 nM; relative to DMSO; read-out: Residual enzymatic activity
# T4 construct: purchased Reaction Biology Corporation
# In short: as §1
# [5] = molecular target: T5, PLK3 (Homo sapiens, UniProt Q9H4B4); settings: 500 nM; relative to DMSO; read-out: Residual enzymatic activity
# T5 construct: purchased Reaction Biology Corporation
# In short: as §1
# [6] = molecular target: T6, STK32C/YANK3 (Homo sapiens, UniProt Q86UX6); settings: 500 nM; relative to DMSO; read-out: Residual enzymatic activity
# T6 construct: purchased Reaction Biology Corporation
# In short: as §1
# [7] = molecular target: T7, KHS/MAP4K5 (Homo sapiens, UniProt Q9Y4K4); settings: 500 nM; relative to DMSO; read-out: Residual enzymatic activity
# T7 construct: purchased Reaction Biology Corporation
# In short: as §1
# [8] = molecular target: T8, HIPK2 (Homo sapiens, UniProt Q9H2X6); settings: 500 nM; relative to DMSO; read-out: Residual enzymatic activity
# T8 construct: purchased Reaction Biology Corporation
# T8 sequence (Q9H2X6 whole entry): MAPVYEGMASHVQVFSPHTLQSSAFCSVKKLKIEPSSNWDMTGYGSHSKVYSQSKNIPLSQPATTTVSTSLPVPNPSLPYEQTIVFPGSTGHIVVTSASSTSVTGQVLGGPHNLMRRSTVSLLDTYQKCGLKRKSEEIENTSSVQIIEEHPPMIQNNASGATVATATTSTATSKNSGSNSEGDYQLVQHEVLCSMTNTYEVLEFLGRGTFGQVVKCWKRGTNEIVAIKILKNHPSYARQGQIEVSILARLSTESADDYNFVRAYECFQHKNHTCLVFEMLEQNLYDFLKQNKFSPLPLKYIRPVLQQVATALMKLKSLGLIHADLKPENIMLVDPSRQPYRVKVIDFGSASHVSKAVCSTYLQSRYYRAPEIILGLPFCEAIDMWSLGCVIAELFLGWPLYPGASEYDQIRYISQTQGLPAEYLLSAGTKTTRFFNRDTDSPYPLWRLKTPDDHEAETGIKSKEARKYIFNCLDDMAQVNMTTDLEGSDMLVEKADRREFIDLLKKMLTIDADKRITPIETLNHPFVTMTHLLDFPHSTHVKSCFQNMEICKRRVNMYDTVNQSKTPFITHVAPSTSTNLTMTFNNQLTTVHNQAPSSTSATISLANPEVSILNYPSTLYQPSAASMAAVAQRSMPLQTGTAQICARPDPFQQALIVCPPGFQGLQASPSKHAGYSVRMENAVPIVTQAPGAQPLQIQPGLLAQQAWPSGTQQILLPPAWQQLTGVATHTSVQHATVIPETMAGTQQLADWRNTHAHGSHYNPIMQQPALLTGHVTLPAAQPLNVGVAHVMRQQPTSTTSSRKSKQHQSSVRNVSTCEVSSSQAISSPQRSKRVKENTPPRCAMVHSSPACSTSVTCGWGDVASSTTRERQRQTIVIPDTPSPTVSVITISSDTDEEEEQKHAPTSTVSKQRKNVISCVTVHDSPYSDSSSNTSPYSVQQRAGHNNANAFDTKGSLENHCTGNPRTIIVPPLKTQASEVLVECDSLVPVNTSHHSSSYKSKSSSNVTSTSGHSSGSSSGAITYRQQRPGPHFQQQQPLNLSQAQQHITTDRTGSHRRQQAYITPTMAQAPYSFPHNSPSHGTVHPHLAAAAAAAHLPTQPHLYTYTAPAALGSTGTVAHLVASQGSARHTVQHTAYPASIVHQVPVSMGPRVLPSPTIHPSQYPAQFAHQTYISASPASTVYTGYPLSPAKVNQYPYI
# In short: as §1
# [9] = molecular target: T9, IR (Homo sapiens, UniProt P06213); settings: 500 nM; relative to DMSO; read-out: Residual enzymatic activity
# T9 construct: purchased Reaction Biology Corporation
# In short: as §1
# [10] = molecular target: T10, MLK1/MAP3K9 (Homo sapiens, UniProt P80192); settings: 500 nM; relative to DMSO; read-out: Residual enzymatic activity
# T10 construct: purchased Reaction Biology Corporation (assay service)
# In short: as §1
# [11] = molecular target: T11, P38d/MAPK13 (Homo sapiens, UniProt O15264); settings: 500 nM; relative to DMSO; read-out: Residual enzymatic activity
# T11 construct: purchased Reaction Biology Corporation
# In short: as §1
# [12] = molecular target: T12, FGFR1 (Homo sapiens, UniProt P11362); settings: 500 nM; relative to DMSO; read-out: Residual enzymatic activity
# T12 construct: purchased Reaction Biology Corporation
# In short: as §1
# [13] = molecular target: T13, P38b/MAPK11 (Homo sapiens, UniProt Q15759); settings: 500 nM; relative to DMSO; read-out: Residual enzymatic activity
# T13 construct: purchased Reaction Biology Corporation
# In short: as §1
# [14] = molecular target: T14, GRK4 (Homo sapiens, UniProt P32298); settings: 500 nM; relative to DMSO; read-out: Residual enzymatic activity
# T14 construct: purchased Reaction Biology Corporation
# In short: as §1
# [15] = molecular target: T15, TIE2/TEK (Homo sapiens, UniProt Q02763); settings: 500 nM; relative to DMSO; read-out: Residual enzymatic activity
# T15 construct: purchased Reaction Biology Corporation
# In short: as §1
# [16] = molecular target: T16, HCK (Homo sapiens, UniProt P08631); settings: 500 nM; relative to DMSO; read-out: Residual enzymatic activity
# T16 construct: purchased Reaction Biology Corporation (assay service)
# In short: as §1
# [17] = molecular target: T17, RAF1 (Homo sapiens, UniProt P04049); settings: 500 nM; relative to DMSO; read-out: Residual enzymatic activity
# T17 construct: purchased Reaction Biology Corporation
# In short: as §1
# [18] = molecular target: T18, DDR2 (Homo sapiens, UniProt Q16832); settings: 500 nM; relative to DMSO; read-out: Residual enzymatic activity
# T18 construct: purchased Reaction Biology Corporation
# In short: as §1
# [19] = molecular target: T19, PKN2/PRK2 (Homo sapiens, UniProt Q16513); settings: 500 nM; relative to DMSO; read-out: Residual enzymatic activity
# T19 construct: purchased Reaction Biology Corporation
# In short: as §1
# [20] = molecular target: T20, ERK2/MAPK1 (Homo sapiens, UniProt P28482); settings: 500 nM; relative to DMSO; read-out: Residual enzymatic activity
# T20 construct: purchased Reaction Biology Corporation
# In short: as §1
# [21] = molecular target: T21, CK1epsilon (Homo sapiens, UniProt P49674); settings: 500 nM; relative to DMSO; read-out: Residual enzymatic activity
# T21 construct: purchased Reaction Biology Corporation
# In short: as §1
# [22] = molecular target: T22, SRPK2 (Homo sapiens, UniProt P78362); settings: 500 nM; relative to DMSO; read-out: Residual enzymatic activity
# T22 construct: purchased Reaction Biology Corporation
# In short: as §1
# [23] = molecular target: T23, ALK2/ACVR1 (Homo sapiens, UniProt Q04771); settings: 500 nM; relative to DMSO; read-out: Residual enzymatic activity
# T23 construct: purchased Reaction Biology Corporation
# In short: as §1
# [24] = molecular target: T24, COT1/MAP3K8 (Homo sapiens, UniProt P41279); settings: 500 nM; relative to DMSO; read-out: Residual enzymatic activity
# T24 construct: purchased Reaction Biology Corporation
# T24 sequence (P41279 whole entry): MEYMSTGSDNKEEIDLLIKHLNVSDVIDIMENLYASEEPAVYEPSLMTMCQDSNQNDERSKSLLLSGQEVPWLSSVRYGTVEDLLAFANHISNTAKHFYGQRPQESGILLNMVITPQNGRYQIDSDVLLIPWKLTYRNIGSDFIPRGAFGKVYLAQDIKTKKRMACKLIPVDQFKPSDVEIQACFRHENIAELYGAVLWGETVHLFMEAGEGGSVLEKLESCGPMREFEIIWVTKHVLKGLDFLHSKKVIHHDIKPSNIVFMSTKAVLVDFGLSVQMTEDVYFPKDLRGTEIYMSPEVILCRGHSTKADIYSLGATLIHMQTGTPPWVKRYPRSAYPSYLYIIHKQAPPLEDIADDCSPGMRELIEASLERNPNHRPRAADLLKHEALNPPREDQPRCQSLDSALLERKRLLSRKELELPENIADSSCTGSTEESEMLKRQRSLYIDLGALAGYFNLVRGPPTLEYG
# In short: as §1
# [25] = molecular target: T25, PASK (Homo sapiens, UniProt Q96RG2); settings: 500 nM; relative to DMSO; read-out: Residual enzymatic activity
# T25 construct: purchased Reaction Biology Corporation
# In short: as §1
# [26] = molecular target: T26, DCAMKL1 (Homo sapiens, UniProt O15075); settings: 500 nM; relative to DMSO; read-out: Residual enzymatic activity
# T26 construct: purchased Reaction Biology Corporation
# In short: as §1
# [27] = molecular target: T27, MEKK3 (Homo sapiens, UniProt Q99759); settings: 500 nM; relative to DMSO; read-out: Residual enzymatic activity
# T27 construct: purchased Reaction Biology Corporation
# In short: as §1
# [28] = molecular target: T28, STK38/NDR1 (Homo sapiens, UniProt Q15208); settings: 500 nM; relative to DMSO; read-out: Residual enzymatic activity
# T28 construct: purchased Reaction Biology Corporation
# In short: as §1
# [29] = molecular target: T29, MRCKa/CDC42BPA (Homo sapiens, UniProt Q5VT25); settings: read-out: Residual enzymatic activity
# T29 construct: purchased Reaction Biology Corporation
# In short: as §1
# [30] = molecular target: T30, SRMS (Homo sapiens, UniProt Q9H3Y6); settings: 500 nM; relative to DMSO; read-out: Residual enzymatic activity
# T30 construct: purchased Reaction Biology Corporation
# In short: as §1
# [31] = molecular target: T31, CAMK2d (Homo sapiens, UniProt Q13557); settings: 500 nM; relative to DMSO; read-out: Residual enzymatic activity
# T31 construct: purchased Reaction Biology Corporation
# In short: as §1
# [32] = molecular target: T32, MAPKAPK2 (Homo sapiens, UniProt P49137); settings: 500 nM; relative to DMSO; read-out: Residual enzymatic activity
# T32 construct: purchased Reaction Biology Corporation
# In short: as §1
# [33] = molecular target: T33, PAK5 (Homo sapiens, UniProt Q9P286); settings: 500 nM; relative to DMSO; read-out: Residual enzymatic activity
# T33 construct: purchased Reaction Biology Corporation
# In short: as §1
# [34] = molecular target: T34, TYK1/LTK (Homo sapiens, UniProt P29376); settings: 500 nM; relative to DMSO; read-out: Residual enzymatic activity
# T34 construct: purchased Reaction Biology Corporation
# In short: as §1
# [35] = molecular target: T35, WNK2 (Homo sapiens, UniProt Q9Y3S1); settings: 500 nM; relative to DMSO; read-out: Residual enzymatic activity
# T35 construct: purchased Reaction Biology Corporation
# In short: as §1
# [36] = molecular target: T36, TAOK1 (Homo sapiens, UniProt Q7L7X3); settings: 500 nM; relative to DMSO; read-out: Residual enzymatic activity
# T36 construct: purchased Reaction Biology Corporation
# T36 sequence (Q7L7X3 whole entry): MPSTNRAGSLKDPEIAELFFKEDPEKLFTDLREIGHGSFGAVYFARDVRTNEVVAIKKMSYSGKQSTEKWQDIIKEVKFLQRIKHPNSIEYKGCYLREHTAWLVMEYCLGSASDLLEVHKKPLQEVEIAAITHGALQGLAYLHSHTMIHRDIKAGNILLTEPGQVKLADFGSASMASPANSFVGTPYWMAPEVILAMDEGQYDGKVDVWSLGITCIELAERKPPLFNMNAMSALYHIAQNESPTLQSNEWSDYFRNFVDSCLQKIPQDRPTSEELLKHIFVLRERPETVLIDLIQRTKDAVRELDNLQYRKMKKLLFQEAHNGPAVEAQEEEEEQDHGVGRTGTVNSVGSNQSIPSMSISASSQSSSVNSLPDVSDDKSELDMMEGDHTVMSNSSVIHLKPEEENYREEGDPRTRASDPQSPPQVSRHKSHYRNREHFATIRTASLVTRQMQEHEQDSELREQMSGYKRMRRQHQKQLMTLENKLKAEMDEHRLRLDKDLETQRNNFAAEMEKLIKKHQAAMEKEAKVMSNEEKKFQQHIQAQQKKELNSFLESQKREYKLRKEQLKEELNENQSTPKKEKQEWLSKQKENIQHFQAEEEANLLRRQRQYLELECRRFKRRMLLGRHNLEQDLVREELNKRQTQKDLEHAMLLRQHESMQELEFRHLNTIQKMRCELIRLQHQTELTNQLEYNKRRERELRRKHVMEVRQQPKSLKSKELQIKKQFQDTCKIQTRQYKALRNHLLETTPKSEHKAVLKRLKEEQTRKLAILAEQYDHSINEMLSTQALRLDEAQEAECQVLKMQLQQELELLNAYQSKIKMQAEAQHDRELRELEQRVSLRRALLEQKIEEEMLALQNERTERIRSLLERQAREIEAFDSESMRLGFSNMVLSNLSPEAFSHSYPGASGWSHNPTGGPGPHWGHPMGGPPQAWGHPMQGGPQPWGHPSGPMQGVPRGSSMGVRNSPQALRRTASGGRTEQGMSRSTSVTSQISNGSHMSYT
# In short: as §1
# [37] = molecular target: T37, CLK4 (Homo sapiens, UniProt Q9HAZ1); settings: 500 nM; relative to DMSO; read-out: Residual enzymatic activity
# T37 construct: purchased Reaction Biology Corporation
# In short: as §1
# [38] = molecular target: T38, c-MER (Homo sapiens, UniProt Q12866); settings: 500 nM; relative to DMSO; read-out: Residual enzymatic activity
# T38 construct: purchased Reaction Biology Corporation
# In short: as §1
# [39] = molecular target: T39, TTBK2 (Homo sapiens, UniProt Q6IQ55); settings: 500 nM; relative to DMSO; read-out: Residual enzymatic activity
# T39 construct: purchased Reaction Biology Corporation
# T39 sequence (Q6IQ55 whole entry): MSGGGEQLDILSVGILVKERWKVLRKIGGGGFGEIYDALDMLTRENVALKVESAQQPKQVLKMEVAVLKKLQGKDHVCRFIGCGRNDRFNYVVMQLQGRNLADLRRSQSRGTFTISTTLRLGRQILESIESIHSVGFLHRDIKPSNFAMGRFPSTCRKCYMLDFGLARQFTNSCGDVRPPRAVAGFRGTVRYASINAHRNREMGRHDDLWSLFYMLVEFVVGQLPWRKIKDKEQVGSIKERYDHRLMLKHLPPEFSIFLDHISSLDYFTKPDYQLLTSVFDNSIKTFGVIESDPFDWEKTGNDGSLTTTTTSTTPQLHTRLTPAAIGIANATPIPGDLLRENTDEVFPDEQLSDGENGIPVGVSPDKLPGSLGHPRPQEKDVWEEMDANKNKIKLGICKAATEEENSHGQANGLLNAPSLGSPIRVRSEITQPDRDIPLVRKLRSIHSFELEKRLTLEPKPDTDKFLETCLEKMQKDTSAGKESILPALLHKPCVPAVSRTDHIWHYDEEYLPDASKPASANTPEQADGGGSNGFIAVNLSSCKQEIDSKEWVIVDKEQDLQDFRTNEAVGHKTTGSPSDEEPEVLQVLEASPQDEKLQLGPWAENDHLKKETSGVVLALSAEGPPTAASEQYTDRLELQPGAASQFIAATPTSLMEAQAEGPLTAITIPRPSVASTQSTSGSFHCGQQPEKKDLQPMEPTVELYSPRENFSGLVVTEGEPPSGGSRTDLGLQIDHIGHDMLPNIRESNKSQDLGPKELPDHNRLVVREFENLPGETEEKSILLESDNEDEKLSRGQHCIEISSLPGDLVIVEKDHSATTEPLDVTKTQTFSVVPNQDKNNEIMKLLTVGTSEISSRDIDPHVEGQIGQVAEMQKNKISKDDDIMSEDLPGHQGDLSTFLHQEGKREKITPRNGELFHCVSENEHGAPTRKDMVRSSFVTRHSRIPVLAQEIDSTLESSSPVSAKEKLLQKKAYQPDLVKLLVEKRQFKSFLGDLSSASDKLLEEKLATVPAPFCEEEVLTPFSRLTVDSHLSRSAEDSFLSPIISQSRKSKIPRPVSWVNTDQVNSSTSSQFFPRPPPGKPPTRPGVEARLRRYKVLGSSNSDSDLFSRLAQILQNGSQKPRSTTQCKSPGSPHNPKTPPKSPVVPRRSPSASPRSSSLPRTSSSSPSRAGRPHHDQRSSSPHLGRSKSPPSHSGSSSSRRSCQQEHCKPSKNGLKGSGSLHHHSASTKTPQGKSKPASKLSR
# In short: as §1
smiles,measurement,setting,value
"COc1cc(Nc2ncc(F)c(Nc3ccc4c(n3)NC(=O)C(C)(C)O4)n2)cc(OC)c1OC [R406, reference compound]",remaining activity at 0.5 µM,[1],75.1%
same,remaining activity at 0.5 µM,[2],62.3%
same,remaining activity at 0.5 µM,[3],42.8%
same,remaining activity at 0.5 µM,[4],97.1%
same,remaining activity at 0.5 µM,[5],53.1%
same,remaining activity at 0.5 µM,[6],102%
same,remaining activity at 0.5 µM,[7],87.1%
same,remaining activity at 0.5 µM,[8],94.9%
same,remaining activity at 0.5 µM,[9],77.5%
same,remaining activity at 0.5 µM,[10],6.3%
same,remaining activity at 0.5 µM,[11],84.7%
same,remaining activity at 0.5 µM,[12],29%
same,remaining activity at 0.5 µM,[13],101%
same,remaining activity at 0.5 µM,[14],96.8%
same,remaining activity at 0.5 µM,[15],69.9%
same,remaining activity at 0.5 µM,[16],15.4%
same,remaining activity at 0.5 µM,[17],73.3%
same,remaining activity at 0.5 µM,[18],31.5%
same,remaining activity at 0.5 µM,[19],85.4%
same,remaining activity at 0.5 µM,[20],88%
same,remaining activity at 0.5 µM,[21],104%
same,remaining activity at 0.5 µM,[22],104%
same,remaining activity at 0.5 µM,[23],135%
same,remaining activity at 0.5 µM,[24],100%
same,remaining activity at 0.5 µM,[25],106%
same,remaining activity at 0.5 µM,[26],84.2%
same,remaining activity at 0.5 µM,[27],76.1%
same,remaining activity at 0.5 µM,[28],70.4%
same,remaining activity at 0.5 µM,[29],104%
same,remaining activity at 0.5 µM,[30],101%
same,remaining activity at 0.5 µM,[31],98.9%
same,remaining activity at 0.5 µM,[32],106%
same,remaining activity at 0.5 µM,[33],49%
same,remaining activity at 0.5 µM,[34],30.2%
same,remaining activity at 0.5 µM,[35],95.2%
same,remaining activity at 0.5 µM,[36],78.1%
same,remaining activity at 0.5 µM,[37],52.1%
same,remaining activity at 0.5 µM,[38],73.9%
same,remaining activity at 0.5 µM,[39],95.4%
